Laboratory results taken from patent US9290467B2, “Cyclic amides” (Hoffmann-La Roche Inc., priority 2012, dated 2016).
Like-named read-outs stand apart in the source and are kept apart here.

Legend:
[1] = rcm bond, 16-membered ring, DCM, 50.0 °C
[2] = molecular target: Cathepsin L (Homo sapiens (Human), UniProt P07711); test: Cathepsin enzyme inhibition assay (fluorogenic peptide substrate Z-Val-Val-Arg-AMC); type: biochemical; conditions: enzyme 1 nM, substrate 20 μM, pH 6.5
Procedure: Enzyme activity is measured by observing the increase in fluorescence intensity caused by cleavage of a peptide substrate containing a fluorophore whose emission is quenched in the intact peptide.
Assay buffer: 100 mM potassium phosphate pH 6.5, EDTA-Na 5 mM, Triton X-100 0.001%, DDT 5 mM.
Enzymes (all at 1 nM): human and mouse Cathepsin S, Cat K, Cat B, Cat L
Substrate (20 μM): Z-Val-Val-Arg-AMC, except for Cat K which uses Z-Leu-Arg-AMC (both from Bachem).
AMC=7-Amino-4-Methyl-Coumarin.
Excitation 360 nm, Emission 465 nm.
Enzyme is added to the substance dilutions in 96-well microtitre plates and the reaction is started with substrate. […] IC50 are calculated by standard methods. The results are expressed in μM in the following table.

Sequence of Cathepsin L (P07711 114-333): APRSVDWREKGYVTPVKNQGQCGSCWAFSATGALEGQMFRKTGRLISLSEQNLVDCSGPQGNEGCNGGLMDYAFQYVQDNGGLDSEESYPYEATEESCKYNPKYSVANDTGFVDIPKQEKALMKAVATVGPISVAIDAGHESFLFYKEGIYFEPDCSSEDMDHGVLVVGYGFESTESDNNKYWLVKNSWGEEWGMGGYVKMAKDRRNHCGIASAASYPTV

SMILES	IC50 [2]	also measured
COC(=O)[C@@H]1Cc2ccc(c(Cl)c2)OC/C=C/CCN2CCCC2C(=O)N1 (stereo partly shown)		ring closure, isolated yield ([1]; from C=CCCN1CCC[C@H]1C(=O)N[C@@H](Cc1ccc(OCC=C)c(Cl)c1)C(=O)OC, Grubbs II (0.3 eq)/pTsOH (2 eq, in AcOH), 2.64 mM): 87%
COc1ccc2c(c1)C(=O)N[C@H](C(=O)NC1(C#N)CC1)Cc1ccc(c(Cl)c1)OC/C=C/CO2 [Example 16, (E)-(S)-19-Chloro-8-methoxy-5-oxo-12,17-dioxa-4-aza-tricyclo[16.2.2.0*6,11*]docosa-1(21),6,8,10,14,18(22),19-heptaene-3-carboxylic acid (1-cyano-cyclopropyl)-amide]	11.4 nM	
N#CC1(NC(=O)[C@@H]2Cc3ccc(c(Cl)c3)OCC=CCOc3ccc(Br)cc3C(=O)N2)CC1		ring closure, isolated yield ([1]; from C=CCOc1ccc(C[C@H](NC(=O)c2cc(Br)ccc2OCC=C)C(=O)NC2(C#N)CC2)cc1Cl, Grubbs II (0.3 eq), 2.15 mM): 53%
CC1(C)CC2C(=O)N[C@H](C(=O)NC3(C#N)CC3)Cc3ccc(c(Cl)c3)OC/C=C/CCN2C1 (mixture of isomers) [Example 15, (E)-(S)-18-Chloro-8,8-dimethyl-5-oxo-16-oxa-4,10-diaza-tricyclo[15.2.2.0*6,10*]henicosa-1(20),13,17(21),18-tetraene-3-carboxylic acid (1-cyano-cyclopropyl)-amide]	168 nM	
N#CC1(NC(=O)[C@@H]2Cc3ccc(c(Cl)c3)OC/C=C/CNc3ccc(Br)cc3C(=O)N2)CC1 [Example 38, (E)-(S)-8-Bromo-19-chloro-5-oxo-17-oxa-4,12-diaza-tricyclo[16.2.2.0*6,11*]docosa-1(21),6,8,10,14,18(22),19-heptaene-3-carboxylic acid (1-cyano-cyclopropyl)-amide]	10 nM	
N#CC1(NC(=O)[C@@H]2Cc3ccc(c(Cl)c3)OCCCCOc3ccc(Cl)cc3C(=O)N2)CC1 [Example 11, (S)-8,19-Dichloro-5-oxo-12,17-dioxa-4-aza-tricyclo[16.2.2.0*6,11*]docosa-1(21),6,8,10,18(22),19-hexaene-3-carboxylic acid (1-cyano-cyclopropyl)-amide]	11.6 nM	
N#CC1(NC(=O)[C@@H]2Cc3ccc(cc3)OC/C=C/CCc3ccccc3C(=O)N2)CC1 [Example 3, (E)-(S)-5-Oxo-17-oxa-4-aza-tricyclo[16.2.2.0%6,11&]docosa-1(21),6,8,10,14,18(22),19-heptaene-3-carboxylic acid (1-cyano-cyclopropyl)-amide]	77 nM	
CSc1ccc2c(c1)C(=O)N[C@H](C(=O)NC1(C#N)CC1)Cc1ccc(c(Cl)c1)OC/C=C/CO2 [Example 47, (E)-(S)-19-Chloro-8-methylsulfanyl-5-oxo-12,17-dioxa-4-aza-tricyclo[16.2.2.0*6,11*]docosa-1(21),6,8,10,14,18(22),19-heptaene-3-carboxylic acid (1-cyano-cyclopropyl)-amide]	1.6 nM	
N#CC1(NC(=O)[C@@H]2Cc3ccc(cc3)OC/C=C/COc3cccc(c3)C(=O)N2)CC1 [Example 2, (E)-(S)-5-Oxo-11,16-dioxa-4-aza-tricyclo[15.2.2.1*6,10*]docosa-1(20),6,8,10(22),13,17(21),18-heptaene-3-carboxylic acid (1-cyano-cyclopropyl)-amide]	230 nM	
N#CC1(NC(=O)[C@@H]2Cc3ccc(c(Cl)c3)OC/C=C/COc3ccc(C(F)(F)F)cc3C(=O)N2)CC1 [Example 34, (E)-(S)-19-Chloro-5-oxo-8-trifluoromethyl-12,17-dioxa-4-aza-tricyclo[16.2.2.0*6,11*]docosa-1(21),6,8,10,14,18(22),19-heptaene-3-carboxylic acid (1-cyano-cyclopropyl)-amide]	9 nM	
N#CC1(NC(=O)[C@@H]2Cc3ccc(c(Cl)c3)OC/C=C/COc3ccc(F)cc3C(=O)N2)CC1 [Example 32, (E)-(S)-19-Chloro-8-fluoro-5-oxo-12,17-dioxa-4-aza-tricyclo[16.2.2.0*6,11*]docosa-1(21),6,8,10,14,18(22),19-heptaene-3-carboxylic acid (1-cyano-cyclopropyl)-amide]	16 nM	
N#CC1(NC(=O)[C@@H]2Cc3ccc(c(I)c3)OC/C=C/COc3ccccc3C(=O)N2)CC1 [Example 25, (E)-(S)-19-Iodo-5-oxo-12,17-dioxa-4-aza-tricyclo[16.2.2.0*6,11*]docosa-1(21),6,8,10,14,18(22),19-heptaene-3-carboxylic acid (1-cyano-cyclopropyl)-amide, stereoaxis R]	236 nM	
N#CC1(NC(=O)[C@@H]2Cc3ccc(c(Cl)c3)OC/C=C/CCN3C[C@@H](F)CC3C(=O)N2)CC1 (mixture of isomers) [Example 13, (E)-(3S,8S)-18-Chloro-8-fluoro-5-oxo-16-oxa-4,10-diaza-tricyclo[15.2.2.0*6,10*]henicosa-1(20),13,17(21),18-tetraene-3-carboxylic acid (1-cyano-cyclopropyl)-amide]	948 nM	
N#CC1(NC(=O)[C@@H]2Cc3ccc(c(Cl)c3)OCCCCOc3cc4c(cc3C(=O)N2)CCCC4)CC1 [Example 29, (12S)-22-chloro-N-(1-cyanocyclopropyl)-14-oxo-2,3,4,5,11,12,13,14,16,17,18,19-dodecahydro-7,10-ethenonaphtho[2,3-b][1,12,5]dioxazacyclohexadecine-12-carboxamide]	13 nM	
COC(=O)[C@@H]1Cc2ccc(c(Cl)c2)OC/C=C/COc2ccccc2C(=O)N1		ring closure, isolated yield ([1]; from C=CCOc1ccc(C[C@H](NC(=O)c2ccccc2OCC=C)C(=O)OC)cc1Cl, Grubbs II (0.3 eq), 2.76 mM): 47%
N#CC1(NC(=O)[C@@H]2Cc3ccc(c(Cl)c3)OC/C=C/CCc3ccccc3C(=O)N2)CC1 [Example 5, (E)-(S)-19-Chloro-5-oxo-17-oxa-4-aza-tricyclo[16.2.2.0*6,11*]docosa-1(21),6,8,10,14,18(22),19-heptaene-3-carboxylic acid (1-cyano-cyclopropyl)-amide]	9.6 nM	
N#CC1(NC(=O)[C@@H]2Cc3ccc(c(Cl)c3)OCCCCOc3ccc(F)c(F)c3C(=O)N2)CC1 [Example 50, (S)-19-Chloro-7,8-difluoro-5-oxo-12,17-dioxa-4-aza-tricyclo[16.2.2.0*6,11*]docosa-1(21),6,8,10,18(22),19-hexaene-3-carboxylic acid (1-cyano-cyclopropyl)-amide]	13.5 nM	
N#CC1(NC(=O)[C@@H]2Cc3ccc(c(I)c3)OC/C=C/COc3ccccc3C(=O)N2)CC1 [Example 26, (E)-(S)-19-Iodo-5-oxo-12,17-dioxa-4-aza-tricyclo[16.2.2.0*6,11*]docosa-1(21),6,8,10,14,18(22),19-heptaene-3-carboxylic acid (1-cyano-cyclopropyl)-amide, stereoaxis S]	139 nM	
CC(C)(C)OC(=O)N1CC(c2ccc3c(c2)C(=O)N[C@H](C(=O)NC2(C#N)CC2)Cc2ccc(c(Cl)c2)OC/C=C/CO3)C1 [Example 39, 3-[(E)-(S)-19-Chloro-3-(1-cyano-cyclopropylcarbamoyl)-5-oxo-12,17-dioxa-4-aza-tricyclo[16.2.2.0*6,11*]docosa-1(21),6,8,10,14,18(22),19-heptaen-8-yl]-azetidine-1-carboxylic acid tert-butyl ester]	26.2 nM	
N#CC1(NC(=O)[C@@H]2Cc3ccc(c(Cl)c3)OC/C=C/COc3cc4c(cc3C(=O)N2)CCCC4)CC1 [Example 27, (3E,12S)-22-chloro-N-(1-cyanocyclopropyl)-14-oxo-2,5,11,12,13,14,16,17,18,19-decahydro-7,10-ethenonaphtho[2,3-b][1,12,5]dioxazacyclohexadecine-12-carboxamide]	16 nM	
N#CC1(NC(=O)[C@@H]2Cc3ccc(c(I)c3)OCCCCOc3ccccc3C(=O)N2)CC1 [Example 30, (S)-19-Iodo-5-oxo-12,17-dioxa-4-aza-tricyclo[16.2.2.0*6,11*]docosa-1(21),6(11),7,9,18(22),19-hexaene-3-carboxylic acid (1-cyano-cyclopropyl)-amide]	181 nM	
N#CC1(NC(=O)[C@@H]2Cc3ccc(c(Cl)c3)OC/C=C/COc3ccc(C4CNC4)cc3C(=O)N2)CC1 [Example 41, (E)-(S)-8-Azetidin-3-yl-19-chloro-5-oxo-12,17-dioxa-4-aza-tricyclo[16.2.2.0*6,11*]docosa-1(21),6,8,10,14,18(22),19-heptaene-3-carboxylic acid (1-cyano-cyclopropyl)-amide]	5.2 nM	
N#CC1(NC(=O)[C@@H]2Cc3ccc(c(Cl)c3)OCCCCOc3ccccc3C(=O)N2)CC1 [Example 7, (S)-19-Chloro-5-oxo-12,17-dioxa-4-aza-tricyclo[16.2.2.0*6,11*]docosa-1(21),6,8,10,18(22),19-hexaene-3-carboxylic acid (1-cyano-cyclopropyl)-amide]	96.2 nM	
N#CC1(NC(=O)[C@@H]2Cc3ccc(c(Cl)c3)OCCCCOc3ccc(F)cc3C(=O)N2)CC1 [Example 35, (S)-19-Chloro-8-fluoro-5-oxo-12,17-dioxa-4-aza-tricyclo[16.2.2.0*6,11*]docosa-1(21),6,8,10,18(22),19-hexaene-3-carboxylic acid (1-cyano-cyclopropyl)-amide]	23 nM	
N#CC1(NC(=O)[C@@H]2Cc3ccc(c(Cl)c3)OC/C=C/COc3c(Cl)cc(F)cc3C(=O)N2)CC1 [Example 48, (E)-(S)-10,19-Dichloro-8-fluoro-5-oxo-12,17-dioxa-4-aza-tricyclo[16.2.2.0*6,11*]docosa-1(21),6,8,10,14,18(22),19-heptaene-3-carboxylic acid (1-cyano-cyclopropyl)-amide]	139 nM	
